A short description of data set [1]: TGA/DSC behaviour during heating. In kind it is physicochemical. To be noted: heating process; for weight loss during heating (TGA): FIG. 23A; for stability of crystal form during heating (DSC): FIG. 23B.
Data set [2] is described as follows: Rat pharmacokinetic study. The conditions noted are these: rats; for bioavailability: intravenous 1-2 mg/kg, oral 2-40 mg/kg. In kind it is in vivo. The procedure: In the rat pharmacokinetic study, a group of rats (three rats) were injected intravenously with 1-2 mg/kg, and the second group of rats (three rats) were orally administered 2-40 mg/kg at 7 time points (0.25, 0.5, 1, 2, 4, 8, 16 hours) of the quinazoline derivative (I) of the present invention. Take blood to measure the concentration of the quinazoline derivative (I) of the present invention in the blood, and calculate the peak area and half-life. The calculation method of bioavailability is: (peak area of drug oral/oral dose)/(peak area of drug intravenous injection/intravenous dose)×100%.

Data set [3] relates to Glioma PDX with EGFRVIII mutation. The data set can be described thus: CellTiter-Glo cell viability, glioma tumor cells. The data set is classed as cell-based. As for the experimental part:
(§1) Add 100 microliters of CellTiter-Glo reagent to each well and mix on an orbital shaker for 2 minutes to induce cell lysis. The plate was incubated at room temperature for 10 minutes to stabilize the luminescence signal. The luminescence signal was recorded on the TECAN Infinite M1000 Pro instrument.
On the technique in general: ATP-based viability assays read luminescence as a measure of living cells.

The test system of data set [4] is patient primary brain tumor tissue with EGFRVIII mutation. Kind of data set: Subcutaneous PDX mouse model of glioma with […] mutation. The data set is classed as in vivo. The conditions noted are these: orally, twice a day, three weeks. The procedure:
The patient's primary tumor tissue (brain tumor) was implanted under the skin of the mouse, and the tumor grew to about 150 cubic millimeters, and the medication was started for three weeks. […] The second group of quinazoline derivatives (I) single agent, 3 mg/kg, orally, twice a day, the third group of quinazoline derivatives (I) single agent, 10 mg/kg, orally, two times a day, the fourth group of quinazoline derivatives (I) is a single agent, 20 mg/kg, orally, twice a day.

A further data set concerns the target P-glycoprotein (Homo sapiens, UniProt P08183). The data set can be described thus: P-gp efflux substrate. The data set is classed as in vitro ADME.
Data set [5] in a line: Blood-brain barrier penetration in rats. In kind it is in vivo, rat. To be noted: oral, four hours after administration. The procedure: To determine whether the quinazoline derivative (I) can cross the blood-brain barrier (BBB), the test compound was administered to rats orally. Four hours after the administration, the rats were killed, blood and brain tissue were collected, and the concentration of the test compound was analyzed. Brain penetration is defined as the ratio of the concentration of the compound in brain tissue to the concentration in plasma. Crossing the blood-brain barrier is the ratio of the free concentration of the drug in the brain tissue to the free concentration of the drug in the plasma. P-glycoprotein is an efflux protein of the blood-brain barrier, which discharges the P-glycoprotein substrate […]. Breast cancer resistance protein is an efflux protein from the blood-brain barrier, which excretes […].

Data set [6] deals with T1, Breast cancer resistance protein (BCRP) (Homo sapiens, UniProt Q9UNQ0).
T1 sequence (Q9UNQ0 1-655): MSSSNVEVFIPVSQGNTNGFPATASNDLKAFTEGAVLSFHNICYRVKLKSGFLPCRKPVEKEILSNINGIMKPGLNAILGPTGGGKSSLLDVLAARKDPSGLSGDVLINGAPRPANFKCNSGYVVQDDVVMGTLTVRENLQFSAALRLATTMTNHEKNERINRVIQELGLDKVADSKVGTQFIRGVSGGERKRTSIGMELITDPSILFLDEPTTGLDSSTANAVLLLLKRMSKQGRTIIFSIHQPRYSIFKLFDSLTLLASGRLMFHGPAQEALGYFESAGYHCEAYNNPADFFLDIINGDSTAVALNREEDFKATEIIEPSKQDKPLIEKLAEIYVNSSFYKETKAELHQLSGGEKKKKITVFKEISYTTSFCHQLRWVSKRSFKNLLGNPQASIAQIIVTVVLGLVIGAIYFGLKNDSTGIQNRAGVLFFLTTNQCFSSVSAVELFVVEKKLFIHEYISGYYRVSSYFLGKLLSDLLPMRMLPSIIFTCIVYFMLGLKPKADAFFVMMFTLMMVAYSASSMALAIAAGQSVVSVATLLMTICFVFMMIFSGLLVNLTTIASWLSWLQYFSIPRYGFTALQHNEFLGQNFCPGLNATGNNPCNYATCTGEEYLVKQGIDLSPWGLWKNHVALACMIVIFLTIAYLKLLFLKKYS
Kind of data set: BCRP efflux substrate. The data set is classed as in vitro ADME.

The nature of data set [7]: Equilibrium solubility in water. The conditions noted are these: room temperature, 24 hours, listed as quinazoline derivative (I) free base. In kind it is physicochemical. As for the experimental part:
Experimental method: Weigh about 10 mg of solid sample (free base and various salt forms and crystal forms), add 1.5 mL of water, and after equilibrate at room temperature for 24 hours, take out 0.3 mL of turbid solution, and centrifuge to separate the lower solid and supernatant. After the supernatant was filtered through a 0.45 μm (PTFE) filter, the concentration of free alkali was tested.

Another data set addresses EGFR enzyme (Homo sapiens, UniProt P00533). The data set can be described thus: EGFR enzyme inhibition mechanism (ADP-Glo, ATP titration). The data set is classed as biochemical. The conditions noted are these: ATP diluted from 600 uM, EGFR 0.4 nM to 0.0125 nM; FIG. 24. As for the experimental part: In the experiment of the quinazoline derivative (I) of the present invention on the mechanism of inhibiting EGFR, the EGFR enzyme was added to the 384-well plate from 6 concentrations diluted in equal proportions (2 times) of 0.4 nM to 0.0125 nM and 0 concentration in polyE4Y1 solution, incubate for 15 minutes, add 7 concentrations of ATP diluted from 600 uM in equal proportions (2 times) to react for 60 minutes, add ADP-Glo reagent and detection reagent for 40 minutes to measure RLU signal. […] The benefits of this mechanism of action are obvious. The quinazoline derivative (I) of the present invention has this mechanism of action, showing high activity and high selectivity, and has the characteristics of small side effects and resistance to drug resistance.

Data set [8] relates to PC-9 tumor cell (EGFR Del 19 mutation). Kind of data set: CellTiter-Glo cell viability, PC-9 tumor cells. The data set is classed as cell-based. To be noted: 72 hours, read-out: Inhibition of growth of PC-9 tumor cell (EGFR Del 19 mutation), IC50. As for the experimental part:
as §1

A further data set deals with EGFRV3 (EGFRVIII) (Homo sapiens, UniProt P00533, DELINS30-297G). The data set can be described thus: Western blot of […] phosphorylation. The conditions noted are these: FIG. 21. The data set is classed as cell-based. An excerpt:
FIG. 21 is a schematic diagram of the inhibition of […] phosphorylation by quinazoline derivatives of the present invention;
It can be seen from Table 22 that the quinazoline derivative (I) with the configuration of R according to the present invention has unexpected […] mutation activity, which is >100 times higher activity than the enantiomer activity while has similar biological activity for EGFR Del 19 activating mutation.
In general terms: In western blotting, separated proteins are transferred to a membrane and probed.

The mark [9] stands for this setting: listed as quinazoline derivative fumarate salt.
[10] abbreviates: listed as quinazoline derivatives (I).

The structures appear in SMILES notation. Counter-ions that a name gives are not always drawn. Like-named read-outs stand apart in the source and are kept apart here.

The text below walks through data of patent publication US20250282752A1, “Quinazoline Derivative Salt Crystal Form, Preparation Method and Application” (WEISHANG (SHANGHAI) BIO-PHARMACEUTICAL CO., LTD., priority 2018, published 2025).

As usually defined, the half-life is how long it takes for the measured level to halve. Read a low half-life as rapid decline. As usually defined, the bioavailability is dose-corrected exposure relative to a reference, in per cent. As a reminder, the IC50 is the midpoint of a concentration-inhibition curve.

P-glycoprotein, sequence (P08183 whole entry): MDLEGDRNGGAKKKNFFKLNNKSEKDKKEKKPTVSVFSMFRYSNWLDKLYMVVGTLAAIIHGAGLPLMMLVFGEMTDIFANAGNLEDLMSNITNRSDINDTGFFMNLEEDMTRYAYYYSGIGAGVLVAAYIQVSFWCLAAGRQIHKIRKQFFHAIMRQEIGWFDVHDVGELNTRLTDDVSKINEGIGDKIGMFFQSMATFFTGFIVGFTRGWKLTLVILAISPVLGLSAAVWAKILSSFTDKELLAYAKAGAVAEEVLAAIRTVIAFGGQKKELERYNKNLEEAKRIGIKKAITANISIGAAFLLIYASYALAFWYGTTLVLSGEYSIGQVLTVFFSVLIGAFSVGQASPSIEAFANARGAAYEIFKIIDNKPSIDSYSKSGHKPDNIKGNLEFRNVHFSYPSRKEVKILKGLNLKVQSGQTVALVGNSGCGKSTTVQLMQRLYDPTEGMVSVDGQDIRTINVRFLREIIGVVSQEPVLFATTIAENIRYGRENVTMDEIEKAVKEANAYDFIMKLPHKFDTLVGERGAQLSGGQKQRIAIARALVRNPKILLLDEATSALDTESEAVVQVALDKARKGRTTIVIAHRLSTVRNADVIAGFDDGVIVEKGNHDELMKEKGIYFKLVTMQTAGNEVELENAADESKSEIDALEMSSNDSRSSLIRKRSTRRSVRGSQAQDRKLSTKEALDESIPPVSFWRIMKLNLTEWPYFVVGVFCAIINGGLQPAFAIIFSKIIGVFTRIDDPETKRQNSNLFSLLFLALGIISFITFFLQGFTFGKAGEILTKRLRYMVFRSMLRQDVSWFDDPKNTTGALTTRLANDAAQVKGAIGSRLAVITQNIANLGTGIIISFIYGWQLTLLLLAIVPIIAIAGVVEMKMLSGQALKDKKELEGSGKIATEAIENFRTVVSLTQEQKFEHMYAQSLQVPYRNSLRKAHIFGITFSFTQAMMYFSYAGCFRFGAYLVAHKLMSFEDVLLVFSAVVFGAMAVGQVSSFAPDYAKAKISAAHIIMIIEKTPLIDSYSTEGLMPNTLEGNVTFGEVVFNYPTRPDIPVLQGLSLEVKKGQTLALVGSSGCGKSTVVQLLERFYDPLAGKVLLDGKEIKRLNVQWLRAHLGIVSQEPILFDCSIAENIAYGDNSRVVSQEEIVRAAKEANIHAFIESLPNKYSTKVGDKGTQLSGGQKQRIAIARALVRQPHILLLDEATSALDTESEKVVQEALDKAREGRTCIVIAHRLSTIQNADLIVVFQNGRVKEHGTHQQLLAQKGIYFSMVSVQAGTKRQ

Turning to `C#Cc1cccc(Nc2ncnc3cc(OC)c(O[C@@H]4CCN(C)CC4(F)F)cc23)c1F` [fumarate crystal form A, (R)-6-[(3,3-difluoro-1-methylpiperidin-4-yl)oxy]-N-(3-Ethynyl-2-fluorophenyl)-7-methoxyquinazolin-4-amine], in data set [1], the “weight loss during heating (TGA)” value is “no significant weight loss” and the “stability of crystal form during heating (DSC)” value is listed as “good stability”. In addition, in data set [1] (setting [9]), the “weight loss during heating (TGA)” value is reported as “without significant weight loss” and the “stability of crystal form during heating (DSC)” value is given as “the crystal form is stable during heating”. In data set [2] (rat, blood), the half-life was 7.4 h. This molecule also yielded a bioavailability in [2] of 80%.

Turning to `C#Cc1cccc(Nc2ncnc3cc(OC)c(O[C@@H]4CCN(C)CC4(F)F)cc23)c1F` [Hydrochloride crystal form B, (R)-6-[(3,3-difluoro-1-methylpiperidin-4-yl)oxy]-N-(3-Ethynyl-2-fluorophenyl)-7-methoxyquinazolin-4-amine], the bioavailability in data set [2] (rat, blood, po, read-out: bioavailability) was more than 60%.

As to `C#Cc1cccc(Nc2ncnc3cc(OC)c(O[C@@H]4CCN(C)CC4(F)F)cc23)c1F` [quinazoline derivative (I), (R)-6-[(3,3-difluoro-1-methylpiperidin-4-yl)oxy]-N-(3-Ethynyl-2-fluorophenyl)-7-methoxyquinazolin-4-amine], the “EGFRVIII mutation activity relative to the enantiomer” value in data set [3] (R configuration vs S enantiomer) is on record as more than 100 times. In addition, the IC50 in [3] (read-out: Inhibition of growth of Glioma PDX with EGFRVIII mutation, IC50, 72 hours, CellTiter-Glo) was found to be 10 nM; in data set [8], 8 nM. Besides, the tumor reduction result in [4] (20 mg/kg) is “caused tumor reduction”. The “inhibition of tumor growth vs control group” value in [4] (3, 10 and 20 mg/kg, FIG. 22) is given as “good inhibition of tumor growth”. Moreover, the values for the P-gp efflux substrate entry at P-glycoprotein and on P-glycoprotein (setting [10]) were “not a P-glycoprotein or BCRP substrate” and “no”, respectively. The “Blood brain barrier penetration rate (free concentration in brain tissue / free concentration in plasma)” value in [5] (setting [10]) was more than 50%. Further, the Kp at 4 h in data set [5] (rat, brain tissue / plasma (free concentrations), read-out: Blood brain barrier penetration rate (free concentration in brain tissue / free concentration in plasma)) is more than 0.5. Moreover, the BCRP efflux substrate entry in data set [6] was “not a P-glycoprotein or BCRP substrate”; in data set [6] (setting [10]) it was “no”. Moreover, the “equilibrium solubility in water” value in data set [7] was less than 5 µg/mL. Further, at EGFR enzyme, the “mechanism of inhibiting EGFR” value is “non-ATP competition mechanism”. Also, at EGFRV3 (EGFRVIII), the “phosphorylation of EGFRV3” value was “inhibited”.
